Test results: patent US20220144850A1, “INDOLO HEPTAMYL OXIME ANALOGUE AS PARP INHIBITOR” (Chia Tai Tianqing Pharmaceutical Group Co., Ltd., priority 2019, published 2022)

What was measured:
[1] = Plasma protein binding rate, SD rat plasma (equilibrium dialysis); assay type: in vitro ADME; conditions: Sprague-Dawley, SD rats plasma, dialysis 4 h at 37° C.
Experimental: (§1) Experimental Example 5: Study on Plasma Protein Binding Rate
(§2) The protein binding rates of the compounds disclosed herein in plasma of human, CD-1 mice and SD rats were determined. 796 μL of blank plasma was taken from human, CD-1 mice and SD rats, and added with 4 μL of test compound working solution (400. μM) or warfarin working solution (400 μM) to achieve a final concentration of 2 μM of both the test compound and the warfarin in the plasma sample. The samples were mixed well. The final concentration of organic phase DMSO was 0.5%; 50 μL of test compound and warfarin plasma sample was pipetted into a sample receiving plate (three parallels), and a corresponding volume of blank plasma or buffer was immediately added such that the final volume of each sample well was 100 μL. The volume ratio of plasma to dialysis buffer was 1:1, and 400 μL of stop solution was added to these samples, which were used as TO samples for determination of recovery rate and stability. The TO samples were stored at 2-8° C. for subsequent treatment with other dialyzed samples; 150 μL of the test compound and warfarin plasma sample was added to a drug delivery end of each dialysis well, and 150 μL of blank dialysis buffer was added to a corresponding receiving end of the dialysis well. The dialysis plate was then sealed with a gas permeable membrane and placed in a humid, 5% CO2 incubator and incubated at 37° C. for 4 h while shaking at about 100 rpm. After the dialysis was completed, 50 μL of the dialyzed buffer sample and dialyzed plasma sample were pipetted to a new sample receiving plate. A corresponding volume of corresponding blank plasma or buffer was added to the samples such that the final volume of each sample well was 100 μL, and the volume ratio of plasma to dialysis buffer was 1:1. All samples were subjected to LC/MS analysis after protein precipitation, and the protein binding rates and the recovery rates were calculated by the following formulas: protein unbinding rate (%)=100×drug concentration passing through dialysis membrane/drug concentration not passing through dialysate; protein binding rate (%)=100−protein unbinding rate (%); recovery rate (%)=100×(drug concentration passing through dialysis membrane+drug concentration not passing through dialysate)/total drug concentration before dialysis.

[2] = Plasma protein binding rate, CD-1 mouse plasma (equilibrium dialysis); assay type: in vitro ADME; conditions: CD-1 mice plasma, dialysis 4 h at 37° C.
Experimental: as §1, §2

PARylation = PARylation inhibition in Lovo cells (H2O2 stimulated, anti-PAR antibody); assay type: cell-based; conditions: Homo sapiens, 25 mM H2O2
Experimental: Experimental Example 4: Anti-Proliferation Experiment on PARylation
Experimental materials: test compounds; F12K medium; Lovo cells; Anti-Poly (ADP-ribose) mouse monoclonal antibody; FITC-labeled goat anti-mouse IgG; hydrogen peroxide; DAPI; PBS; methanol; acetone; Tween-20; skimmed milk powder; Envision multi-marker analyzer.
Day one: Lovo cells were plated on a plate at 60,000 cells/well, and then incubated overnight at 37° C./5% CO2.
Day two: reagents were prepared: • 1. Washing solution: Tween-20 was added to 1-fold PBS, and the final concentration of Tween-20 was 0.05%. • 2. Blocking solution: skimmed milk powder was added to the washing solution, and the final concentration of skimmed milk powder was 5%. • 3. Cell stationary solution: methanol and acetone were mixed in a ratio of 7:3.
Preparation of test compounds: compound intermediate plate 1: compounds were diluted to final concentrations of 10 μM to 0.13 nM with DMSO and PBS, and the concentration of DMSO was 1%. Compound intermediate plate 2: compounds were diluted to final concentrations of 10 μM to 0.13 nM with DMSO and PBS containing 50 mM hydrogen peroxide, and the concentration of DMSO was 1%.
1. Cell supernatant was removed, and compound was transferred from the compound intermediate plate 1 to the cell plate at 40 μL per well, and the mixture was incubated at 37° C. for 30 min.
Compound wells: compound, DMSO 1%;
Negative and positive controls: 1% DMSO added;
Blank controls: cell-free wells, PBS added.
2. After the incubation was completed, compound was transferred from the compound intermediate plate 2 to the cell plate at 40 μL per well, and the final concentration of H2O2 was 25 mM.
Compound wells: compound+25 mM H2O2
Positive and negative controls: 1% DMSO+25 mM H2O2
Blank controls: cell-free wells, PBS added
4. After the incubation was completed, the cell plate was washed once with PBS pre-cooled on ice and added with 100 μL of pre-cooled cell stationary solution per well. After the cell plate was left to stand at −20° C. for 10 min, the cell stationary solution was shaken off. 5. After being air-dried, the cell plate was washed with PBS at 200 μL per well, and then the PBS was discarded. 6. The cell plate was added with blocking solution at 100 μL per well and incubated at 25° C. for 30 min, after which the blocking solution was shaken off. 7. Anti-PAR antibody which was diluted in blocking solution at a ratio of 1:50, was added to the cell plate at 25 μL per well, and then the mixture was incubated at 25° C. for 60 min.
Negative control wells: blocking solution added at 25 μL/well
Blank control wells: blocking solution added at 25 μL/well
8. […] After removal of the liquid, corresponding fluorescence values were read on Envision: FITC: 480 nm and 530 nm; DAPI: 360 nm and 460 nm. […]

[3] = Metabolic stability in liver microsomes, mouse; assay type: in vitro ADME; conditions: Mouse liver microsomes 0.5 mg/mL, 1 μM compound, NADPH, 37° C.
Experimental: Experimental Example 7. Metabolic Stability in Liver Microsomes
Experimental objective: to test the metabolic stability of test compounds in liver microsomes of three species.
Experimental method: 1 μM test compound and a microsome (0.5 mg/mL) were incubated at 37° C. in the presence of an NADPH regeneration system; positive controls were testosterone (3A4 substrate), propylamine propiophenone (2D6 substrate) and diclofenac (2C9 substrate), and also at 37° C., a positive control was incubated with a microsome (0.5 mg/mL) in the presence of an NADPH regenerating system; the reaction was stopped by direct mixing of the sample with cold acetonitrile containing an internal standard at various time points (0, 5, 10, 20, 30 and 60 min); the compound and microsome were incubated for 60 min in the absence of an NADPH regenerating system; one parallel (n=1) was set at each time point; the samples were analyzed by LC/MS/MS; the concentration of the compound was characterized by the ratio of the analyte peak area to the internal standard peak area.

fraction unbound at 4 h, 2 μM [1] | fraction unbound at 4 h, 2 μM [2] | IC50 (PARylation) [nM] | Residual content after 60 min of incubation [3] [%] | SMILES
0.035 | 0.101 | 27 | 57.1 | O=C1NOCc2c(-c3ccc(C4CCCN4)c(F)c3)[nH]c3cccc1c23 (stereo not shown) [Example 11_A]
0.036 | 0.037 | 23 | 52.3 | O=C1NOCc2c(-c3ccc(C4CCCN4)cc3)[nH]c3cc(F)cc1c23 (single isomer, unassigned) [Example 24_A]
0.097 | 0.08 | 25 | 57.7 | CC1(c2ccc(-c3[nH]c4cc(F)cc5c4c3CONC5=O)cc2F)CCCN1 (single isomer, unassigned) [Example 26_A]

More lines, now with the values behind:

SMILES | fraction unbound at 4 h, 2 μM [1] | fraction unbound at 4 h, 2 μM [2] | IC50 (PARylation) [nM] | Residual content after 60 min of incubation [3] [%]
CC1(c2ccc(-c3[nH]c4cccc5c4c3CONC5=O)cc2)CCCN1 (stereo not shown) [Example 6_A] | 0.176 | 0.208 | 19 | 45.6
CC1(c2ccc(-c3[nH]c4cc(F)cc5c4c3CONC5=O)cc2)CCCN1 (stereo not shown) [Example 25_A] | 0.077 | 0.104 |  | 40.7
